According to US20180251431A1 (VERTEX PHARMACEUTICALS INCORPORATED, priority 2016, published 2018):

Key:
human microglia = test: Reduction in C26:0 LPC in human microglia in vitro; assay type: cell-based; details: half maximal reduction in C26:0 LPC
Procedure: Lysophosphatidylcholine (LPC) VLCFA were generated from straight chain VLCFA (SC-VLCFA) and were used clinically for newborn screening (Vogel et al., Mol. Genet. Metab. (2015) 114(4):599-603). In vitro efficacy studies were performed by measuring LPC VLCFA level (measured as LPC synthesis) in various cell lines, specifically in 1) human HEK cells, 2) patient derived cells, and 3) human microglia, which are disease relevant CNS cells. Compound 87's dose response relationships and IC50 values were measured in HEK cells, primary patient fibroblasts, immortalized patient lymphocytes, and a human microglial cell line. […]
Immortalized human microglia (Applied Biological Materials (ABM); catalog #T0251; Richmond BC, Canada) were grown and sub-cultured following the subculturing protocols from ABM except DMEM (high glucose, pyruvate; LifeTech Cat. No. 11995) was used instead of Prigrow III medium and standard tissue culture grade flasks and plates were used. […] An equal volume of media was used to neutralize the detachment media and the cells were collected and counted. […]
Upon the completion of the compound treatment, the media (with compound treatment) was aspirated from the well. […] The plate was sealed with a plate tape and put at −80° C. for further VLCFA extraction and VLCFA quantitation on LC-MS, as described below.
VLCFA Extraction and Quantitation on LCMS: […]

WT mice = test: Reduction of blood C26:0 LPC in vivo in wild-type mice; parameters: species or system mouse; details: blood (DBS), plateau between the 2 mg/kg and 16 mg/kg doses, PO QD 28 days
Procedure: A LC-MS/MS method of analyzing Lysophosphatidylcholine (LPC) in whole blood (dried blood spot card, DBS) and brain tissue samples was developed for measuring the abundance of saturated C16, C18, C20, C22, C24 and C26 LPC in DBS and brain samples. Whole blood was collected with Whatman DMPK-C DBS card at an approximate volume of 20 μL at each time point. Brain tissue was collected at the end point of the study. Samples were prepared and LC-MS/MS analysis was performed as described below.
For DBS bioanalysis, the DBS card was punched at 3 mm in diameter using a semi-automated DBS card puncher. To each punched spot 200 μL of pure methanol was added. The vial was vortexed at low speed for 20 minutes and centrifuged at 4000 rpm for 20 minutes. The clear supernatant was injected onto LC-MS/MS for analysis. […]
The supernatant obtained from each sample was injected into a LC-MS/MS system (Agilent Technologies, Santa Clara, Calif. and Applied Biosystems, Framingham, Mass.) for analysis. […] LPCs were detected by an AB Sciex API-6500 triple quadrupole MS with electrospray ionization in the mode of multiple reaction monitoring. Ions of Q1 were monitored at m/z of 496.6, 524.6, 552.6, 580.6, 608.6 and 636.6 for LPC 16:0, LPC 18:0, LPC 20:0, LPC 22:0, LPC 24:0 and LPC 26:0, respectively. […] C16:0 LPC levels were expressed as a concentration. […]

In the case of `O=C(Nc1ccn(-c2ccnc(F)c2)n1)C1(c2ccccc2F)CC1` [Compound 87, 1-(2-fluorophenyl)-N-[1-(2-fluoro-4-pyridyl)pyrazol-3-yl]cyclopropanecarboxamide], the IC50 (human microglia) is reported as 11 nM and the “reduction in C26:0 LPC levels (maximal effect plateau)” value (WT mice) is reported as ~65%.
